Test results reported in patent publication US20230053540A1, “TREATMENT OF LIVER INJURY” (Massachusetts Institute of Technology, priority 2019, published 2023).

Test system: hepatocytes
Test: Seq-Well scRNA-Seq of hepatocytes after APAP overdose (signature scores, DEG vs untreated)
Assay type: in vivo, mouse

SMILES: CC(=O)Nc1ccc(O)cc1 [APAP, acetaminophen]
- Rpl34 logFC (APAP vs UT, A24logFC): −0.2976
- Rps24 logFC (APAP vs UT, A24logFC): −0.2625
- Rraga logFC (APAP vs UT, A24logFC): 0.2626
- Rsl1d1 logFC (APAP vs UT, A24logFC): 0.3461
- Selo logFC (APAP vs UT, A24logFC): −0.2574
- Sema4g logFC (APAP vs UT, A24logFC): −0.2505
- Serbp1 logFC (APAP vs UT, A24logFC): 0.3227
- Sf3b1 logFC (APAP vs UT, A24logFC): 0.2888
- Sigmar1 logFC (APAP vs UT, A24logFC): −0.3055
- Slc16a2 logFC (APAP vs UT, A24logFC): −0.252
- Slc16a10 logFC (APAP vs UT, A24logFC): −0.2548
- Slc25a51 logFC (APAP vs UT, A24logFC): 0.264
- Slc26a1 logFC (APAP vs UT, A24logFC): −0.2817
- Slc30a1 logFC (APAP vs UT, A24logFC): 0.2506
- Slc35d1 logFC (APAP vs UT, A24logFC): 0.3094
- Smoc1 logFC (APAP vs UT, A24logFC): 0.2616
- Spag9 logFC (APAP vs UT, A24logFC): 0.3188
- Spcs1 logFC (APAP vs UT, A24logFC): −0.2629
- Sptan1 logFC (APAP vs UT, A24logFC): 0.3127
- Srd5a1 logFC (APAP vs UT, A24logFC): −0.2773
- Srrm2 logFC (APAP vs UT, A24logFC): 0.3282
- St3gal4 logFC (APAP vs UT, A24logFC): 0.275
- Swi5 logFC (APAP vs UT, A24logFC): −0.2621
- Tab2 logFC (APAP vs UT, A24logFC): 0.3484
- Tbca logFC (APAP vs UT, A24logFC): −0.2726
- Tln1 logFC (APAP vs UT, A24logFC): 0.321
- Tmem86b logFC (APAP vs UT, A24logFC): −0.2582
- Tmem150a logFC (APAP vs UT, A24logFC): −0.2535
- Tmem242 logFC (APAP vs UT, A24logFC): −0.2725
- Tpi1 logFC (APAP vs UT, A24logFC): −0.2616
- Trip11 logFC (APAP vs UT, A24logFC): 0.3479
- Ubr5 logFC (APAP vs UT, A24logFC): 0.3057
- Ugt3a2 logFC (APAP vs UT, A24logFC): −0.2586
- Usp7 logFC (APAP vs UT, A24logFC): 0.2873
- Usp34 logFC (APAP vs UT, A24logFC): 0.2859
- Xrn2 logFC (APAP vs UT, A24logFC): 0.2985
- Ythdc1 logFC (APAP vs UT, A24logFC): 0.2641
- Zfand5 logFC (APAP vs UT, A24logFC): 0.2882
- Zfp106 logFC (APAP vs UT, A24logFC): 0.3369
- Zfp259 logFC (APAP vs UT, A24logFC): 0.2556
- 2810007J24Rik avg_logFC (APAP vs. UT): −0.2871
- 2810007J24Rik pct.1 (APAP vs. UT): 0.909
- Aadac avg_logFC (APAP vs. UT): −0.3243
- Aadac pct.1 (APAP vs. UT): 0.849
- Abca6 avg_logFC (APAP vs. UT): 0.2637
- Abca6 pct.1 (APAP vs. UT): 0.679
- Abcb4 avg_logFC (APAP vs. UT): 0.2759
- Abcb4 pct.1 (APAP vs. UT): 0.78
- Acaa1b avg_logFC (APAP vs. UT): −0.3158
- Acaa1b pct.1 (APAP vs. UT): 0.883
- Adh1 avg_logFC (APAP vs. UT): −0.3122
- Adh1 pct.1 (APAP vs. UT): 0.941
- Agpat6 avg_logFC (APAP vs. UT): 0.2706
- Agpat6 pct.1 (APAP vs. UT): 0.695
- Agt avg_logFC (APAP vs. UT): 0.3007
- Agt pct.1 (APAP vs. UT): 0.859
- Akr1c6 avg_logFC (APAP vs. UT): −0.5047
- Akr1c6 pct.1 (APAP vs. UT): 0.92
- Aldh9a1 avg_logFC (APAP vs. UT): 0.2715
- Aldh9a1 pct.1 (APAP vs. UT): 0.836
- Aldob avg_logFC (APAP vs. UT): 0.2576
- Aldob pct.1 (APAP vs. UT): 0.997
- Angptl3 avg_logFC (APAP vs. UT): 0.414
- Angptl3 pct.1 (APAP vs. UT): 0.961
- Apoa4 avg_logFC (APAP vs. UT): 0.5984
- Apoa4 pct.1 (APAP vs. UT): 0.574
- Apob avg_logFC (APAP vs. UT): 0.2678
- Apob pct.1 (APAP vs. UT): 0.989
- Apoc2 avg_logFC (APAP vs. UT): 0.5107
- Apoc2 pct.1 (APAP vs. UT): 0.851
- Arhgap5 avg_logFC (APAP vs. UT): 0.2875
- Arhgap5 pct.1 (APAP vs. UT): 0.647
- Arhgef12 avg_logFC (APAP vs. UT): 0.2783
- Arhgef12 pct.1 (APAP vs. UT): 0.597
- Asl avg_logFC (APAP vs. UT): 0.3374
- Asl pct.1 (APAP vs. UT): 0.859
- Atp1a1 avg_logFC (APAP vs. UT): 0.2871
- Atp1a1 pct.1 (APAP vs. UT): 0.623
- Atp2a2 avg_logFC (APAP vs. UT): 0.3031
- Atp2a2 pct.1 (APAP vs. UT): 0.666
- Bach1 avg_logFC (APAP vs. UT): 0.2613
- Bach1 pct.1 (APAP vs. UT): 0.356
- Bche avg_logFC (APAP vs. UT): 0.2566
- Bche pct.1 (APAP vs. UT): 0.562
- Brd2 avg_logFC (APAP vs. UT): 0.2856
- Brd2 pct.1 (APAP vs. UT): 0.59
- Btg2 avg_logFC (APAP vs. UT): 0.2635
- Btg2 pct.1 (APAP vs. UT): 0.401
- C8g avg_logFC (APAP vs. UT): −0.2582
- C8g pct.1 (APAP vs. UT): 0.859
- Car3 avg_logFC (APAP vs. UT): −0.3762
- Car3 pct.1 (APAP vs. UT): 0.956
- Cdo1 avg_logFC (APAP vs. UT): 0.2665
- Cdo1 pct.1 (APAP vs. UT): 0.964
- Ces3a avg_logFC (APAP vs. UT): −0.3174
- Ces3a pct.1 (APAP vs. UT): 0.93
- Ces3b avg_logFC (APAP vs. UT): −0.284
- Ces3b pct.1 (APAP vs. UT): 0.727
- Chchd2 avg_logFC (APAP vs. UT): −0.2575
- Chchd2 pct.1 (APAP vs. UT): 0.874
- Chchd10 avg_logFC (APAP vs. UT): 0.3833
- Chchd10 pct.1 (APAP vs. UT): 0.925
- Chka avg_logFC (APAP vs. UT): 0.2892
- Chka pct.1 (APAP vs. UT): 0.312
- Cite avg_logFC (APAP vs. UT): 0.3077
- Cite pct.1 (APAP vs. UT): 0.602
- Cml1 avg_logFC (APAP vs. UT): −0.2953
- Cml1 pct.1 (APAP vs. UT): 0.709
- Cox4i1 avg_logFC (APAP vs. UT): −0.2627
- Cox4i1 pct.1 (APAP vs. UT): 0.941
- Cox6c avg_logFC (APAP vs. UT): −0.3432
- Cox6c pct.1 (APAP vs. UT): 0.808
- Cox7a2 avg_logFC (APAP vs. UT): −0.2511
- Cox7a2 pct.1 (APAP vs. UT): 0.722
- Cp avg_logFC (APAP vs. UT): 0.3758
- Cp pct.1 (APAP vs. UT): 0.965
- Cpt1a avg_logFC (APAP vs. UT): 0.285
- Cpt1a pct.1 (APAP vs. UT): 0.775
- Creld2 avg_logFC (APAP vs. UT): 0.2626
- Creld2 pct.1 (APAP vs. UT): 0.487
- Csde1 avg_logFC (APAP vs. UT): 0.2739
- Csde1 pct.1 (APAP vs. UT): 0.749
- Cyb5 avg_logFC (APAP vs. UT): −0.2845
- Cyb5 pct.1 (APAP vs. UT): 0.972
- Cyp4a10 avg_logFC (APAP vs. UT): 0.7159
- Cyp4a10 pct.1 (APAP vs. UT): 0.727
- Cyp4a14 avg_logFC (APAP vs. UT): 1.281
- Cyp4a14 pct.1 (APAP vs. UT): 0.714
- D17Wsu92e avg_logFC (APAP vs. UT): 0.2809
- D17Wsu92e pct.1 (APAP vs. UT): 0.736
- Ddx3x avg_logFC (APAP vs. UT): 0.2753
- Ddx3x pct.1 (APAP vs. UT): 0.689
- Ddx21 avg_logFC (APAP vs. UT): 0.2576
- Dennd5b avg_logFC (APAP vs. UT): 0.2562
- Dennd5b pct.1 (APAP vs. UT): 0.55
- Dhcr24 avg_logFC (APAP vs. UT): 0.3629
- Dhcr24 pct.1 (APAP vs. UT): 0.883
- Eif1a avg_logFC (APAP vs. UT): 0.2667
- Eif1a pct.1 (APAP vs. UT): 0.492
- Eif4g2 avg_logFC (APAP vs. UT): 0.3407
- Eif4g2 pct.1 (APAP vs. UT): 0.824
- Ell2 avg_logFC (APAP vs. UT): 0.2572
- Ell2 pct.1 (APAP vs. UT): 0.609
- Elovl3 avg_logFC (APAP vs. UT): −0.5221
- Elovl3 pct.1 (APAP vs. UT): 0.65
- Epb4.1 avg_logFC (APAP vs. UT): 0.2567
- Epb4.1 pct.1 (APAP vs. UT): 0.527
- Etf1 pct.1 (APAP vs. UT): 0.61
- Etnppl avg_logFC (APAP vs. UT): 0.2637
- Etnppl pct.1 (APAP vs. UT): 0.647
- Fabp1 avg_logFC (APAP vs. UT): −0.3078
- Fabp1 pct.1 (APAP vs. UT): 0.992
- Fam134b avg_logFC (APAP vs. UT): 0.2987
- Fam134b pct.1 (APAP vs. UT): 0.589
- Fga avg_logFC (APAP vs. UT): 0.4335
- Fga pct.1 (APAP vs. UT): 0.996
- Fgb avg_logFC (APAP vs. UT): 0.3905
- Fgb pct.1 (APAP vs. UT): 0.999
- Fgg avg_logFC (APAP vs. UT): 0.3391
- Fgg pct.1 (APAP vs. UT): 0.997
- Fgl1 avg_logFC (APAP vs. UT): 0.3611
- Fgl1 pct.1 (APAP vs. UT): 0.861
- Fos avg_logFC (APAP vs. UT): 0.2633
- Fos pct.1 (APAP vs. UT): 0.609
- Gadd45g avg_logFC (APAP vs. UT): −0.3405
- Gadd45g pct.1 (APAP vs. UT): 0.503
- Gclc avg_logFC (APAP vs. UT): 0.671
- Gclc pct.1 (APAP vs. UT): 0.839
- Gfra1 avg_logFC (APAP vs. UT): 0.2536
- Gfra1 pct.1 (APAP vs. UT): 0.676
- Gjb2 avg_logFC (APAP vs. UT): 0.2803
- Gjb2 pct.1 (APAP vs. UT): 0.725
- Gm2a avg_logFC (APAP vs. UT): 0.2814
- Gm2a pct.1 (APAP vs. UT): 0.599
- Gm13775 avg_logFC (APAP vs. UT): −1.061
- Gm13775 pct.1 (APAP vs. UT): 0.306
- Gm15564 avg_logFC (APAP vs. UT): 1.171
- Gm15564 pct.1 (APAP vs. UT): 0.981
- Gm23935 avg_logFC (APAP vs. UT): 0.5701
- Gm23935 pct.1 (APAP vs. UT): 0.954
- Gm24601 avg_logFC (APAP vs. UT): 0.4962
- Gm24601 pct.1 (APAP vs. UT): 0.198
- Gm26917 avg_logFC (APAP vs. UT): 0.395
- Gm26917 pct.1 (APAP vs. UT): 0.253
- Gm26924 avg_logFC (APAP vs. UT): 0.8508
- Gm26924 pct.1 (APAP vs. UT): 1
- Grip2 avg_logFC (APAP vs. UT): 0.3797
- Grip2 pct.1 (APAP vs. UT): 0.158
- Grn avg_logFC (APAP vs. UT): 0.3692
- Grn pct.1 (APAP vs. UT): 0.62
- Gstm3 avg_logFC (APAP vs. UT): −0.4736
- Gstm3 pct.1 (APAP vs. UT): 0.269
- Gyk avg_logFC (APAP vs. UT): 0.3144
- Gyk pct.1 (APAP vs. UT): 0.583
- Hbb-bs avg_logFC (APAP vs. UT): 1.332
- Hbb-bs pct.1 (APAP vs. UT): 0.125
- Hbb-bt avg_logFC (APAP vs. UT): 0.4482
- Hbb-bt pct.1 (APAP vs. UT): 0.052
- Hdlbp avg_logFC (APAP vs. UT): 0.274
- Hdlbp pct.1 (APAP vs. UT): 0.828
- Herpud1 avg_logFC (APAP vs. UT): 0.2973
- Herpud1 pct.1 (APAP vs. UT): 0.842
